Results on 1 molecule are retold here after publication PMC8449129, “Single tracer-based protocol for broad-spectrum kinase profiling in live cells with NanoBRET” (STAR Protocols, 2021).

Assay in all cases: cell-based
Design in all cases: NanoBRET live-cell target engagement; % occupancy from displacement of tracer K10 on NanoLuc-kinase fusions, mean n=3
Holding throughout (conditions): HEK293, read-out: % inhibition
On the technique in general: In BRET a luciferase serves as donor, and the signal depends on an acceptor being close.

Assay [1] deals with CHEK2 (Homo sapiens, UniProt O96017). In outline:
(§1)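 Live-cell NanoBRET target engagement: cells expressing kinase–NanoLuc fusion with tracer treated with compound 2 h at 37 °C, 5% CO2. BRET read from donor (450 nm) and acceptor (610/630 nm) emission with 20 μM extracellular NanoLuc inhibitor; % occupancy calculated relative to tracer+DMSO and zero-BRET controls.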

Assay [2] concerns the target NIM1K (Homo sapiens, UniProt Q8IY84). In outline: as §1
Assay [3] has as its target CDKL3 (Homo sapiens, UniProt Q8IVW4). In outline: as §1
Assay [4] addresses WEE2 (Homo sapiens, UniProt P0C1S8). In outline: as §1
The target in assay [5] is CSNK1A1L (Homo sapiens, UniProt Q8N752). A digest of the protocol: as §1
For assay [6], the target named is LIMK2 (Homo sapiens, UniProt P53671). In outline:
as §1

Assay [7] deals with ERN2 (Homo sapiens, UniProt Q76MJ5). A digest of the protocol:
as §1

Assay [8] addresses CDK1 (Homo sapiens, UniProt P06493). A digest of the protocol:
as §1

In assay [9] the target is PAK6 (Homo sapiens, UniProt Q9NQU5). A digest of the protocol:
as §1

Assay [10] deals with RIPK1 (Homo sapiens, UniProt Q13546). In outline: as §1
Chain of RIPK1 (Q13546 whole entry): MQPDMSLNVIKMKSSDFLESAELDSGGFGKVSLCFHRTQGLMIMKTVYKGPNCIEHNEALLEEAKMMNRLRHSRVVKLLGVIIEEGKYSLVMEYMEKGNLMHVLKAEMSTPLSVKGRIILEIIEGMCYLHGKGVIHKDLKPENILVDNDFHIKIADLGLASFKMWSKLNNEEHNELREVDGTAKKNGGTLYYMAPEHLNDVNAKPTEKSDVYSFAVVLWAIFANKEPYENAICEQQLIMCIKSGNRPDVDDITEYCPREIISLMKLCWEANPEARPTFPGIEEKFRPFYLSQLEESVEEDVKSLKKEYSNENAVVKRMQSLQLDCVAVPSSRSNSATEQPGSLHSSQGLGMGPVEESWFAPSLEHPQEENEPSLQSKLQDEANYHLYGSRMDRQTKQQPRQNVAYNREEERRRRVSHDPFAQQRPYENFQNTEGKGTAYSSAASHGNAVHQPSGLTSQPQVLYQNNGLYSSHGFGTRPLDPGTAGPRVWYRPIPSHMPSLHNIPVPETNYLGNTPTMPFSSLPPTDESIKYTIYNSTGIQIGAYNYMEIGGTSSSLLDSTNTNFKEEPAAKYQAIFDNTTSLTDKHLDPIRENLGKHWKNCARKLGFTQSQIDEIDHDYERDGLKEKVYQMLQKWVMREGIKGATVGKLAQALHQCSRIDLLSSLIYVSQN
For assay [11], the target named is ULK1 (Homo sapiens, UniProt O75385). In outline: as §1
The target of assay [12] is STK36 (Homo sapiens, UniProt Q9NRP7). A digest of the protocol: as §1
In assay [13] the target is MAP3K21 (Homo sapiens, UniProt Q5TCX8). A digest of the protocol: as §1
Assay [14] addresses NEK5 (Homo sapiens, UniProt Q6P3R8). A digest of the protocol:
as §1

Assay [15] has as its target CDK18 (Homo sapiens, UniProt Q07002). A digest of the protocol: as §1
Assay [16] concerns the target CDK3 (Homo sapiens, UniProt Q00526). A digest of the protocol:
as §1

The target in assay [17] is MAPK4 (Homo sapiens, UniProt P31152). In outline:
as §1

For assay [18], the target named is STK38L (Homo sapiens, UniProt Q9Y2H1). A digest of the protocol: as §1
Chain of STK38L (Q9Y2H1 whole entry): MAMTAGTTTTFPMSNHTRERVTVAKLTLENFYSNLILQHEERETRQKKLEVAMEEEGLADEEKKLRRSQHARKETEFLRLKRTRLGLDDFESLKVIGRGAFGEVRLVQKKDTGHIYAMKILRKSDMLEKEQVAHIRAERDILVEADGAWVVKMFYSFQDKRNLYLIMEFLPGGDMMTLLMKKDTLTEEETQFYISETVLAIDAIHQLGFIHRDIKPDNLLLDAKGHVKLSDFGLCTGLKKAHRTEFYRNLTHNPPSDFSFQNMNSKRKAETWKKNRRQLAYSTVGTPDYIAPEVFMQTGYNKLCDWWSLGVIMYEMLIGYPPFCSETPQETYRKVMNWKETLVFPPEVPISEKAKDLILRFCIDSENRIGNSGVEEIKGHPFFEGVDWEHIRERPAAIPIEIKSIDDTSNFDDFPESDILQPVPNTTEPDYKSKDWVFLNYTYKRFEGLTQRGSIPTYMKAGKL

The inhibition is the drop in the measured response relative to a control, in per cent.

The structures appear in SMILES notation.

Chain of CDKL3 (Q8IVW4 whole entry): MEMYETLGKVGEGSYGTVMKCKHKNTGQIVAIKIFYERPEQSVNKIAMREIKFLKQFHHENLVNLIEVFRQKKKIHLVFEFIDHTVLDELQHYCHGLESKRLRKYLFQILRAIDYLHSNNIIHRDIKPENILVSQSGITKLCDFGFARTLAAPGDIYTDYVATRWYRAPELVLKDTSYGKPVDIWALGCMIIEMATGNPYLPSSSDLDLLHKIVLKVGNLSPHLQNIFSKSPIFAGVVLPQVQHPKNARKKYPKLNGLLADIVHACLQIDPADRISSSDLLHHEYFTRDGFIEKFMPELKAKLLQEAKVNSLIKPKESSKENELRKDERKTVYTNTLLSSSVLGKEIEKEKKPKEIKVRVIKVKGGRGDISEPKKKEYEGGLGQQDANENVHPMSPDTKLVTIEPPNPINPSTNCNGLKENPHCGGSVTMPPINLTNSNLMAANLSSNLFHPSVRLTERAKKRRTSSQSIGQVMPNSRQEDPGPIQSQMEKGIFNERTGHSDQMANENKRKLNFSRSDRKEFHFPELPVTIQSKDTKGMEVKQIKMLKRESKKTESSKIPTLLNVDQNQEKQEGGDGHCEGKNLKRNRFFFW
Chain of CHEK2 (O96017 whole entry, the tested form may be a part): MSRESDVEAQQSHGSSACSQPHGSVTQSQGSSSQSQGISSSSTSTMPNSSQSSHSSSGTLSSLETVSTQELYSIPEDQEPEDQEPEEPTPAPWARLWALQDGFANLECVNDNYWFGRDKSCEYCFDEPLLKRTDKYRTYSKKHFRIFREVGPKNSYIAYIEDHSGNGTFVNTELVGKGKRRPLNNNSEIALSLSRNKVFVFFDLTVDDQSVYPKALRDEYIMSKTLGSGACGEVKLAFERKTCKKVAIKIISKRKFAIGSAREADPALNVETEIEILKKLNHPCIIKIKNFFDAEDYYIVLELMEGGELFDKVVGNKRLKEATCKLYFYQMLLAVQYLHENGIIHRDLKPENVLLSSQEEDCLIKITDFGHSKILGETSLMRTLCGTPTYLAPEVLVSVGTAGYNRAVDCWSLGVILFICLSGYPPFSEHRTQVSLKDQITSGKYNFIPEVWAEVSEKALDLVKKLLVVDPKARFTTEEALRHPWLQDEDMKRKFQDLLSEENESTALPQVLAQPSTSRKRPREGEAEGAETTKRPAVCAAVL
Chain of CDK3 (Q00526 whole entry): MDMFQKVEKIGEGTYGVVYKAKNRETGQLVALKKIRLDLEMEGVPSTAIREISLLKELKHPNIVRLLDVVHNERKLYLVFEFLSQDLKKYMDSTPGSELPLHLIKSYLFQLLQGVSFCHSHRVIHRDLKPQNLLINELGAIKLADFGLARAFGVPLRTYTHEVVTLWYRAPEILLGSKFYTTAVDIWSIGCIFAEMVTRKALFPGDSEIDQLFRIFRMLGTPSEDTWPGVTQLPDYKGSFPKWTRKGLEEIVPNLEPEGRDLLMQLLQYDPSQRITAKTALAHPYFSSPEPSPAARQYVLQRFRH
Chain of CDK18 (Q07002 whole entry): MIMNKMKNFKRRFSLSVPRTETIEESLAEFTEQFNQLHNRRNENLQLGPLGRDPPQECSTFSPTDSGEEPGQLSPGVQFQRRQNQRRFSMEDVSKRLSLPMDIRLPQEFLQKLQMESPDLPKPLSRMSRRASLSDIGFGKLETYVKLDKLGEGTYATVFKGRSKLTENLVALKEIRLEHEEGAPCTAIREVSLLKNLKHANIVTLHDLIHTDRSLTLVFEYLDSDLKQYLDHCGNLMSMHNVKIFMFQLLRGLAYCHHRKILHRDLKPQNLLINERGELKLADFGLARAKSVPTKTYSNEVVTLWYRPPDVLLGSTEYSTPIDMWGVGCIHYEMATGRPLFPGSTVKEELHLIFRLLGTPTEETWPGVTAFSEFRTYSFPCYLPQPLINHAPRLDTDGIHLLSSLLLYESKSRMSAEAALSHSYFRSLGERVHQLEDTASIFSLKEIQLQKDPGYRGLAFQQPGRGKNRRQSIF
Chain of NIM1K (Q8IY84 whole entry): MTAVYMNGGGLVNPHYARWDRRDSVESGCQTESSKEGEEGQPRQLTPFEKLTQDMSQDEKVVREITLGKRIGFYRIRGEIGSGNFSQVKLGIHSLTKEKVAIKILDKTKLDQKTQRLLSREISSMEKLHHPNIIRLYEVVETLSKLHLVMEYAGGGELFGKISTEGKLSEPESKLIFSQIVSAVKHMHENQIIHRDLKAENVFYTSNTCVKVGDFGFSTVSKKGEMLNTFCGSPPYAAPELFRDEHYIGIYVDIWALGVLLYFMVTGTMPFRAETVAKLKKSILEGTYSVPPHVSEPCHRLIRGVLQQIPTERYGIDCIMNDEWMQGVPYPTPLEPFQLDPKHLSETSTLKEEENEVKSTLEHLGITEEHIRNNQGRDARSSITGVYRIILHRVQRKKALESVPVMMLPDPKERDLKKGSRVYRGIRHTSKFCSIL
Chain of MAPK4 (P31152 whole entry): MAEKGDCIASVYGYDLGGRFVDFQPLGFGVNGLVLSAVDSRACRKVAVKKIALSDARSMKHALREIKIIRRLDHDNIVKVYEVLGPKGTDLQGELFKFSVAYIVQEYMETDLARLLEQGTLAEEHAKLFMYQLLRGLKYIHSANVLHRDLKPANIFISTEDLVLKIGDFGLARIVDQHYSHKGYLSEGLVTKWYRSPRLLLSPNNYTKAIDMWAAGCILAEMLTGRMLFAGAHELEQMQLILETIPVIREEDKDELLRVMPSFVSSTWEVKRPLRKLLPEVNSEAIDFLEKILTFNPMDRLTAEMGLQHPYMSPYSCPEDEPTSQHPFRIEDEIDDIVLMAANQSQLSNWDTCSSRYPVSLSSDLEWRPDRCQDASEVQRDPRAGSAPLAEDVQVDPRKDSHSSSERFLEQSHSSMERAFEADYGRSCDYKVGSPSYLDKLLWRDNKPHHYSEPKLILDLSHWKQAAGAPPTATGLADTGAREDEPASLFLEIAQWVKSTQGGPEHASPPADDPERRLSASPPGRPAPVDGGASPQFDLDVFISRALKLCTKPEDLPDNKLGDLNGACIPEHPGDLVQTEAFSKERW
Chain of NEK5 (Q6P3R8 whole entry): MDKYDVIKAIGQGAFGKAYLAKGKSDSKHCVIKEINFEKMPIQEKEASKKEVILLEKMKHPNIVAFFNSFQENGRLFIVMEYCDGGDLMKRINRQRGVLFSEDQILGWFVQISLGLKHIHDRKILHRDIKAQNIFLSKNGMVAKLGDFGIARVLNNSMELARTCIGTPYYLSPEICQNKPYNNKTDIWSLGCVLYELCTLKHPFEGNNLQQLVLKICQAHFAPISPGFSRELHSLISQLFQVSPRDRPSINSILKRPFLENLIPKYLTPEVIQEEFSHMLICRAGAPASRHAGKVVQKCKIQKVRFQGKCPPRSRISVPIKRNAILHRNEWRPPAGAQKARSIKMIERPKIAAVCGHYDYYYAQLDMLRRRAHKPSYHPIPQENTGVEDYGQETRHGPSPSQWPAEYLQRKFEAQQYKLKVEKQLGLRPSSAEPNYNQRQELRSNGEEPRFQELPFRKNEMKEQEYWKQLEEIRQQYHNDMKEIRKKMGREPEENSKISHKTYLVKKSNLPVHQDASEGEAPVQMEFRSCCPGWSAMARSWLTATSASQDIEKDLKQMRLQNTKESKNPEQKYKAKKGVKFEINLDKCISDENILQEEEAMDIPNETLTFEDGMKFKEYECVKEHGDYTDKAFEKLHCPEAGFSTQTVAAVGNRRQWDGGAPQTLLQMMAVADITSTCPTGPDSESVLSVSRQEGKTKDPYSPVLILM

Consider `C[C@@H](Oc1cc(-c2cnn(C3CCNCC3)c2)cnc1N)c1c(Cl)ccc(F)c1Cl` [crizotinib], for which the inhibition at 1 µM in [1] is 0%; in [2] it was -3%; in assay [3], 8%; in [4], -4%; in assay [5], -6%; in assay [6] it was 32%. For the same molecule, the inhibition at 1 µM in [7] was -9%; in assay [8], 7%; in assay [9], -7%; in [10], 23%; in assay [11], -1%; in assay [12], -6%. For the same molecule, the inhibition at 1 µM in [13] is 3%; in [14], -6%; in assay [15] it was 2%; in [16], 6%; in assay [17] it was -12%; in assay [18], 5%.
